Reference: patent publication EP4644389A1, “PRMT5-MTA INHIBITOR” (Suzhou Puhe Biopharma Co., Ltd., priority 2022, dated 2024)
Read-outs that look alike come from different tables or passages of the source.

Tests used:
HCT116-MTAPdel = assay: 2D anti-proliferation assay (CTG luminescence), MTAP-deficient HCT116 cells; type: cell-based; details: for IC50: Homo sapiens; for HCT116 WT/MTAPdel Selectivity: ratio of IC50 HCT116 WT / MTAPdel
Description: (§1) HCT116 wild-type and MTAP-deficient cells were cultured in MCCOYS 5A medium containing 10% FBS and 1% penicillin-streptomycin and incubated in a 37°C, 5% CO2 incubator. A 40 µL cell suspension was added to each well of a 384-well microplate. Using Echo, 40 nL of the compound at different concentrations were added to each well, followed by incubation in a 37°C, 5% CO2 incubator for 7-10 days. 40 µL of CTG solution (Promega, Cat No. G7573) was added to each well and incubated away from light in a 37°C, 5% CO2 incubator for 30 minutes. Luminescence was measured using an Envision multimode plate reader (Perkin Elmer, Catalog No. Envision 2104). The luminescence signal was proportional to the ATP content in the system, and the ATP content directly reflected the number of viable cells in the system.

HCT116-MTAPwt = assay: 2D anti-proliferation assay (CTG luminescence), wild-type HCT116 cells; type: cell-based; details: Homo sapiens, HCT-116, 7-10 days incubation
Description: By testing the activity of both of them, the inhibitory effect and selectivity of the molecules of the present invention for PRMT5 at the cellular level were shown.
as §1
ICso value calculation: [formula] • X: Log value of compound concentration • Y: Inhibition rate (%) Table 1: 2D Anti-proliferation Effects of Compounds on HTC116-MTAP del and Wild-type Colorectal Cancer HCT-116 Cell Lines.

[1] = Liver microsomal stability, human; type: in vitro ADME; details: human liver microsomes 0.5 mg/mL, compound 1 µM, NADPH 1 mM, 60 minutes
Description: Microsomal stability experiment of the compound. The details are as follows: A microsomal stability test was conducted on the compounds of the present invention. The test compounds were co-incubated with liver microsomes from different species, with or without the addition of NADPH. In the test system, the final concentration of the test compound was 1 µM, the final concentration of NADPH was 1 mM, and the final concentration of liver microsomes was 0.5 mg/mL.

[2] = Caco-2 membrane permeability assay; type: in vitro ADME; details: human; for efflux ratio: Caco-2, Efflux Ratio = Papp (B-A)/Papp (A-B); for Papp A→B / Papp B→A: Caco-2, apical pH 6.5, basolateral pH 7.4
Description: (§2) Evaluation of membrane permeability of the molecules of the present invention. Samples will be analyzed using LC-MS to estimate the apparent permeability coefficient (Papp) of the compound in Caco-2 monolayer cells, wherein the pH of the apical chamber is 6.5, and the pH of the basolateral chamber is 7.4. The P-gp efflux transporter, BCRP, and MRP2 inhibitors (50 µM quinidine, 30 µM benzbromarone, and 20 µM sulfasalazine) can block the active efflux transport of the compound. The data will be used for calculating apparent permeability (Papp). Papp = (VA×⌊drug⌋acceptor)/(Area×Time×⌊drug⌋initial,donor) [formula] wherein, VA is the volume of the receptor well (unit: mL), area is the membrane surface area (for Transwell-96 well permeable support, it is 0.143 cm^2), and time is the total transport time (unit: seconds). Efflux Ratio = Papp (B−A)/Papp (A−B) [formula]

Caco-2 monolayer cells = assay: Caco-2 membrane permeability assay; type: in vitro ADME; details: Caco-2, Efflux Ratio = Papp (B-A)/Papp (A-B)
Description: as §2

[3] = HCT-116, HCT116 MTAP-deficient cells, 7-10 days incubation, CTG, read-out: HCT116-MTAPdel/IC50/nM
[4] = HCT-116, read-out: HCT116-MTAPdel/IC50/nM

| IC50 (HCT116-MTAPdel; [3]) | IC50 (HCT116-MTAPwt) | SMILES | HCT116 WT/MTAPdel Selectivity (HCT116-MTAPdel) | also measured |
| --- | --- | --- | --- | --- |
| 5 nM | 1450 nM | Cc1c(CO)c(N)nc2cc(F)c(C(=O)N3C(C)COCC3c3ccc(-c4cncc(F)c4)cn3)cc12 (racemic) [Compound A3] | 291 | – |
| 7 nM | 1140 nM | Cc1c(CO)c(N)nc2cc(F)c(C(=O)N3C(C)COCC3c3ccc(-c4cncc(Cl)c4)cn3)cc12 (racemic) [Compound A4] | 164 | – |
| 18 nM | 1360 nM | Cc1c(CO)c(N)nc2cc(F)c(C(=O)N3C(C)COCC3c3ccc(OC(F)(F)F)cc3)cc12 (racemic) [Compound A5] | 75 | – |
| 7 nM | 1020 nM | Cc1c(CO)c(N)nc2cc(F)c(C(=O)N3C(C)COCC3c3ccc(C(F)(F)F)cc3)cc12 (racemic) [Compound A6] | 145 | – |
| 88 nM | 3880 nM | Cc1c(CO)c(N)nc2cc(F)c(C(=O)N3CC(C)CCC3c3ccc4scnc4c3)cc12 (racemic) [Compound A7] | 44 | – |
| 150 nM | 2000 nM | Cc1c(CO)c(N)nc2cc(F)c(C(=O)N3CC(C)CCC3c3ccc4ncsc4c3)cc12 (racemic) [Compound A8] | 13 | – |
| 26 nM | 4380 nM | Cc1c(CO)c(N)nc2cc(F)c(C(=O)N(C)[C@H]3COCc4nc(-c5cncc(Cl)c5)ccc43)cc12 (racemic) [Compound A11] | 168 | – |
| 36 nM | 3250 nM | Cc1c(CO)c(N)nc2cc(F)c(C(=O)N(C)[C@H]3COCc4nc(-c5cncc(F)c5)ccc43)cc12 (racemic) [Compound A12] | 90 | – |
| 32 nM | 3750 nM | Cc1c(CO)c(N)nc2cc(F)c(C(=O)N(C)[C@H]3COCc4nc(-c5cncc(C(F)(F)F)c5)ccc43)cc12 (racemic) [Compound A13] | 117 | – |
| 4250 nM | > 10000 nM | CN(C(=O)c1ccc2nc(N)c(C3CC3)cc2c1)C1COc2cc(C(F)(F)F)ccc21 (racemic) [Compound H1] | >2 | – |
| 4350 nM | > 10000 nM | CN(C(=O)c1ccc2nc(N)c(C3CC3)cc2c1)C1COc2cc(-c3cnn(C)c3)ccc21 (racemic) [Compound H4] | >3 | – |
| 3030 nM | > 10000 nM | Cc1c(CO)c(N)nc2cc(Cl)c(C(=O)N3[C@@H](C)COC[C@H]3c3ccc(C(F)(F)F)cn3)cc12 [Compound A2a] | >3 | – |
| 4 nM | 398 nM | Cc1c(CO)c(N)nc2cc(Cl)c(C(=O)N3[C@H](C)COC[C@@H]3c3ccc(C(F)(F)F)cn3)cc12 [Compound A2b] | 100 | – |
| 6290 nM | > 10000 nM | CN(C(=O)c1ccc2nc(N)c(C3CC3)cc2c1)C1COc2cc(OC(F)(F)F)ccc21 (stereo not shown) [Compound H2] | >1 | – |
| 926 nM | > 10000 nM | CN(C(=O)c1ccc2nc(N)c(C3CC3)cc2c1)C1COCc2nc(C(F)(F)F)ccc21 (stereo not shown) [Compound H3] | >11 | – |
| 2960 nM | 8020 nM | CN(C(=O)c1ccc2nc(N)c(C3CC3)cc2c1)C1COc2cc(-c3cnn(C(F)(F)F)c3)ccc21 (stereo not shown) [Compound H5] | 3 | – |
| 33 nM | 532 nM | Cc1c(C2CC2)c(N)nc2cc(F)c(C(=O)N(C)C3COCc4nc(C(F)(F)F)ccc43)cc12 (stereo not shown) [Compound H6] | 16 | – |
| 29 nM | 1110 nM | Cc1c(C2CC2)c(N)nc2cc(Cl)c(C(=O)N(C)C3COCc4nc(C(F)(F)F)ccc43)cc12 (stereo not shown) [Compound H7] | 38 | – |
| 93 nM | > 10000 nM | C[C@H]1COC[C@@H](c2ccc(C(F)(F)F)cn2)N1C(=O)c1cc2cc(C3CC3)c(N)nc2cc1F [Compound P2] | >108 | – |
| 2870 nM | > 10000 nM | Nc1nc2cc(F)c(C(=O)N3CCOCC3c3ccc(C(F)(F)F)cn3)cc2cc1C1CC1 (stereo not shown) [Compound P3] | >4 | – |
| 790 nM | > 10000 nM | C[C@H]1COC[C@@H](c2ccc(C(F)(F)F)cn2)N1C(=O)c1ccc2nc(N)c(C3CC3)cc2c1 [Compound P4] | >13 | – |
| 612 nM | > 10000 nM | CC(C)N1CCN(c2ccc([C@@H]3COC[C@H](C)N3C(=O)c3cc4cc(C5CC5)c(N)nc4cc3F)cc2)CC1 [Compound P5] | >16 | – |
| 156 nM | – | C[C@H]1COC[C@@H](c2ccc(OC(F)(F)F)cc2)N1C(=O)c1cc2cc(C3CC3)c(N)nc2cc1Cl [Compound P6] | – | – |
| 230 nM | 1640 nM | Cc1c(C2CC2)c(N)nc2cc(Cl)c(C(=O)N3[C@H](C)COC[C@@H]3c3ccc(C(F)(F)F)cn3)cc12 [Compound P7a] | 7 | – |
| 2540 nM | 3800 nM | Cc1c(C2CC2)c(N)nc2cc(Cl)c(C(=O)N3[C@@H](C)COC[C@H]3c3ccc(C(F)(F)F)cn3)cc12 [Compound P7b] | 2 | – |
| 96 nM | > 10000 nM | C[C@H]1COC[C@@H](c2ccc(OC(F)F)nn2)N1C(=O)c1cc2cc(C3CC3)c(N)nc2cc1F [Compound P8] | >104 | – |
| 16 nM | 936 nM | Cc1c(C2CC2)c(N)nc2cc(F)c(C(=O)N3[C@@H](C)COC[C@H]3c3ccc(-c4cncc(Cl)c4)cn3)cc12 [Compound P9] | 59 | – |
| 34 nM | 1860 nM | Cc1c(C2CC2)c(N)nc2cc(F)c(C(=O)N3[C@@H](C)COC[C@H]3c3ccc(-c4cncc(C(F)(F)F)c4)cn3)cc12 [Compound P10] | 55 | – |
| 17 nM | 72 nM | CC(=O)N1CCC(Nc2cc(C(=O)NC[C@H](O)CN3CCc4ccccc4C3)ncn2)CC1 [GSK3326595, reference compound] | 4 | – |

| SMILES | IC50 (HCT116-MTAPdel; [3]) | IC50 (HCT116-MTAPwt) | HCT116 WT/MTAPdel Selectivity (HCT116-MTAPdel) | also measured |
| --- | --- | --- | --- | --- |
| Cc1c(CO)c(N)nc2cc(F)c(C(=O)N(C)C3COc4cc(C(F)(F)F)ccc43)cc12 (racemic) [Compound A9] | 27 nM | 4700 nM | 174 | CLint scaled at 1 µM [1]: 3.6 mL/min/kg; efflux ratio [2]: 1.2; Papp A→B [2]: 5.1 ×10⁻⁶ cm/s; Papp B→A [2]: 5.9 ×10⁻⁶ cm/s; Efflux (Caco-2 monolayer cells): < 2 |
| Cc1c(CO)c(N)nc2cc(F)c(C(=O)N(C)C3COCc4nc(C(F)(F)F)ccc43)cc12 (racemic) [Compound A10] | 18 nM | > 10000 nM | >556 | CLint scaled at 1 µM [1]: 11.1 mL/min/kg; efflux ratio [2]: 3.8; Papp A→B [2]: 8.1 ×10⁻⁶ cm/s; Papp B→A [2]: 31 ×10⁻⁶ cm/s |
| Cc1cc2cc(C(=O)N(Cc3ccc(C(F)(F)F)cn3)[C@H](C)c3ncccn3)ccc2nc1N [AM9747, reference compound] | – | 237 nM | – | IC50 (HCT116-MTAPdel; [4]): 7 nM |
| Cc1cc(NC(=O)C(=O)N2C[C@@H](C)CC[C@@H]2c2ccc3scnc3c2)cnc1N [TNG908, reference compound] | – | 1230 nM | 23 | selectivity (HCT116-MTAPdel; HCT116 WT vs MTAP-deleted): 23 fold; IC50 (HCT116-MTAPdel; [4]): 54 nM |
